In patent US20240390331A1, “ORAL BENDAMUSTINE FORMULATIONS” (TUBE Pharmaceuticals GmbH, priority 2017, published 2024):

What was measured:
[1] = PK of bendamustine capsule formulations vs 60 min IV infusion in beagle dogs, cross over (Example 7); details: dog, plasma
Text: As bioanalytical method a fast and reliable method was used to determine bendamustine and its main metabolite γ-hydroxybendamustine (M3 metabolite) simultaneously in plasma of different species (Srinivas N R et al., Drug Res (Stuttg), 2016, 66(7), 351-356; Chandrashekar D V et al., Drug Res (Stuttg), 2017, doi: 10.1055/s-0043-108124).
The oral bioavailability and the PK profile of formulations of bendamustine with 2-hydroxypropyl-β-cyclodextrin and β-cyclodextrin were compared in beagle dogs.
Capsules with an amount of bendamustine hydrochloride for each of the two formulations to reach a dose of 12 mg/kg were administered to beagle dogs using a cross over design and compared to 60 min IV infusion administration. Capsule formulations were stored between 2-8° C. The respective IV formulation was prepared fresh immediately prior to dosing.

[2] = bendamustine itself, Preiss R et al. 1985; cited from earlier work

Cl.Cn1c(CCCC(=O)O)nc2cc(N(CCCl)CCCl)ccc21 [bendamustine, 4-(5-(bis-(2-chloro-ethyl)-amino)-1-methyl-1H-benzimidazol-2-yl)-butyric acid hydrochloride]
AUC [1]: 3800 ng·h/mL | Cmax [1]: 4300 ng/mL | oral bioavailability [2]: about 56%
